Laboratory results published in patent US10584117B2, “1,3,4-oxadiazole amide derivative compound as histone deacetylase 6 inhibitor, and pharmaceutical composition containing same” (Chong Kun Dang Pharmaceutical Corp., priority 2015, dated 2020).

What was measured:
human recombinant HDAC1 = molecular target: T1, human recombinant HDAC1 (Homo sapiens, UniProt Q13547); test: HDAC enzyme activity inhibition assay (HDAC1, fluorimetric kit); type: biochemical; details: 0.3 μg enzyme, 10 μM substrate, 30° C., 60 minutes
T1 construct: purchased Enzo Life Science BML-SE456
T1 sequence (Q13547 whole entry): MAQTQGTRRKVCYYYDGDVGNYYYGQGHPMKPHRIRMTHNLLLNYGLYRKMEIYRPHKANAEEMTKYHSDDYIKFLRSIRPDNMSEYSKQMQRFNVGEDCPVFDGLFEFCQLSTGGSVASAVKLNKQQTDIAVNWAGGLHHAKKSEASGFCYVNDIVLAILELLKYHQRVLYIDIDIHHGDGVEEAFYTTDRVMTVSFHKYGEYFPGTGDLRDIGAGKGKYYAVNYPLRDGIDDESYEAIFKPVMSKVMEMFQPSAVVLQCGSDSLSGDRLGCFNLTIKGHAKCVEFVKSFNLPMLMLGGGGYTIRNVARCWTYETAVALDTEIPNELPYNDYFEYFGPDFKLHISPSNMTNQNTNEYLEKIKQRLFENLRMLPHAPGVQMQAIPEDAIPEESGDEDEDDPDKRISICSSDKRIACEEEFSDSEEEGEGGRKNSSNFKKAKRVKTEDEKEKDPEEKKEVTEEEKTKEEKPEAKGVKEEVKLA
Description: In order to examine the HDAC6 selectivity of the compounds of formula I of the present invention by HDAC1 and HDAC6 enzymatic activity inhibition assays, an experiment was performed using a conventional substance as a control. HDAC enzyme activity was measured using a HDAC Fluorimetric Drug Discovery Kit (BML-AK511, 516) from Enzo Life Science. For the HDAC1 enzyme activity test, human recombinant HDAC1 (BML-SE456) was used as an enzyme source, and Fluor de Lys®-“SIRT1 (BNL-KI177) was used as a substrate. A 5-fold dilution of the compound was seeded into a 96-well plate, and then 0.3 μg of the enzyme and 10 μM of the substrate were added to each well of the plate and allowed to react at 30° C. for 60 minutes. Then, Fluor de Lys®-Developer II (BML-KI176) was added thereto and allowed to react for 30 minutes, after which the fluorescence value (Ex 360, Em 460) was measured using a multi-plate reader (Flexstation 3, Molecular Device). The HDAC6 enzyme was tested using human recombinant HDAC6 (382180) from Calbiochem, according to the same protocol as the HDAC1 enzyme activity test method. Based on the resulting values, each IC50 value was calculated using GraphPad Prism4.0 program.

human recombinant HDAC6 = molecular target: T2, human recombinant HDAC6 (Homo sapiens, UniProt Q9UBN7); test: HDAC enzyme activity inhibition assay (HDAC6, fluorimetric kit); type: biochemical
T2 construct: purchased Calbiochem 382180
T2 sequence (Q9UBN7 1-1215): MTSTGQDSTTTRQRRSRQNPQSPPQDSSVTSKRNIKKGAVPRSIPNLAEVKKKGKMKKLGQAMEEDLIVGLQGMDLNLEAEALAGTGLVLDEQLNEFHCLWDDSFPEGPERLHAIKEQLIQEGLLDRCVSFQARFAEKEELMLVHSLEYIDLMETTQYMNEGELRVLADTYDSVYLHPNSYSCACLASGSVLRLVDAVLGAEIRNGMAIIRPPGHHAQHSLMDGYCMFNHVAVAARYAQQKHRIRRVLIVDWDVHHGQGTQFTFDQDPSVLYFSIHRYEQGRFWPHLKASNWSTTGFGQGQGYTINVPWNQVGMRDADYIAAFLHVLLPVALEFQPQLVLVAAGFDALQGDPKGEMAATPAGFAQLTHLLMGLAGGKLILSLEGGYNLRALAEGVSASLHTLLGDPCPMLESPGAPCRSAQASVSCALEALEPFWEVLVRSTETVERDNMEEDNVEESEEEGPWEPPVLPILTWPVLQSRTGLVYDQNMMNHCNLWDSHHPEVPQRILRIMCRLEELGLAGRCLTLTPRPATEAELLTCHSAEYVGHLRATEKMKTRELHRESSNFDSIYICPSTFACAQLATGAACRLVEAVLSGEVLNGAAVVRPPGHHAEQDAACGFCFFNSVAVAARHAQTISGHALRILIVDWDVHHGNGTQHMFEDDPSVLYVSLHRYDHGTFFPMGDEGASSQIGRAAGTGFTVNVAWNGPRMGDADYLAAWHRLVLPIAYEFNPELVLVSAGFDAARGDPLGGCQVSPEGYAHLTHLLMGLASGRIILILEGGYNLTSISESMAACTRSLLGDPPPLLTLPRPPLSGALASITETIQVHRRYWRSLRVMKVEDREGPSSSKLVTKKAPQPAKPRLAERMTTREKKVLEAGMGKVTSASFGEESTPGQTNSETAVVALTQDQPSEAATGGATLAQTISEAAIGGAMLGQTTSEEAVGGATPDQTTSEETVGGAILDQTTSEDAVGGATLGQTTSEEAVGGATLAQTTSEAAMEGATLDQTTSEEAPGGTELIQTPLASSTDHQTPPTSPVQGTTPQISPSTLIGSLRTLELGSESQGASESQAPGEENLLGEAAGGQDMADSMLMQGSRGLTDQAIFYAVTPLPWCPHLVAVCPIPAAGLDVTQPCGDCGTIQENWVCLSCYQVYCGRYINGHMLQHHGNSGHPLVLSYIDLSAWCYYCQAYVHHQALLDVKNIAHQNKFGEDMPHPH
Summary of the method: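 Fluorimetric kit assay: human recombinant HDAC1 or HDAC6 (0.3 μg) reacted with 10 μM Fluor de Lys-SIRT1 substrate and 5-fold serially diluted compound for 60 minutes at 30° C, followed by 30 minutes of developer. Fluorescence was read at Ex 360/Em 460, and IC50 values were calculated from it.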

- IC50 (human recombinant HDAC1): 27.2 µM
- HDAC6 selectivity (fold) (human recombinant HDAC6; HDAC6 versus HDAC1): 194 fold
- IC50 (human recombinant HDAC6; same protocol as the HDAC1 test): 0.516 µM
SMILES: O=C(C1CCN(Cc2ccccc2)CC1)N(Cc1ccc(-c2nnc(C(F)(F)F)o2)cc1)c1ccccc1 [Compound 11166, 1-benzyl-N-phenyl-N-(4-(5-(trifluoromethyl)-1,3,4-oxadiazol-2-yl)benzyl)piperidine-4-carboxamide]
